Test results from PubChem BioAssay AID248 (DTP/NCI, 2004).
Inconclusive results and toxic doses are left out. Cut-off read from the data, not from the text of the source: active = T/C of 150% or more; inactive = T/C below 125%.

Test system: L1210 leukemia ip in BDF1 mice, survival T/C
Test: NCI In Vivo Anticancer Drug Screen. Data for tumor model L1210 Leukemia (intraperitoneal) in B6D2F1 (BDF1) mice
Settings: endpoint: mean survival time, higher = longer survival
Procedure, shortened: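 Transplanted-tumor mice were given test agent; controls received vehicle only. Survival readings from the two groups were divided (treated over control).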

[1] = dose: 25.0 mg/kg/injection, schedule: Q01DX009 (ip), vehicle: saline with Tween-80
[2] = dose: 50.0 mg/kg/injection, schedule: Q01DX009 (ip), vehicle: saline with Tween-80
[3] = dose: 100.0 mg/kg/injection, schedule: Q01DX001 (ip), vehicle: saline
[4] = dose: 100.0 mg/kg/injection, schedule: Q04DX003 (ip), vehicle: saline with Tween-80
[5] = dose: 200.0 mg/kg/injection, schedule: Q04DX003 (ip), vehicle: saline with Tween-80
[6] = dose: 100.0 mg/kg/injection, schedule: Q01DX009 (ip), vehicle: Klucel (hydroxypropylcellulose) (HPC)
[7] = dose: 200.0 mg/kg/injection, schedule: Q01DX009 (ip), vehicle: Klucel (hydroxypropylcellulose) (HPC)
[8] = dose: 400.0 mg/kg/injection, schedule: Q01DX009 (ip), vehicle: Klucel (hydroxypropylcellulose) (HPC)
[9] = dose: 100.0 mg/kg/injection, schedule: Q04DX003 (ip), vehicle: saline
[10] = dose: 200.0 mg/kg/injection, schedule: Q04DX003 (ip), vehicle: saline
[11] = dose: 400.0 mg/kg/injection, schedule: Q04DX003 (ip), vehicle: saline

Measured: T/C

O=C(Nc1cccc(-c2nc3ccccc3[nH]2)c1)c1ccc(C(=O)Nc2cccc(-c3nc4ccccc4[nH]3)c2)cc1
inactive: dose: 15.0 mg/kg/injection, schedule: Q01DX Z (ip), vehicle: carboxymethylcellulose (CMC) 91 % of control | dose: 30.0 mg/kg/injection, schedule: Q01DX Z (ip), vehicle: carboxymethylcellulose (CMC) 90 % of control | dose: 60.0 mg/kg/injection, schedule: Q01DX Z (ip), vehicle: carboxymethylcellulose (CMC) 87 % of control | dose: 120.0 mg/kg/injection, schedule: Q01DX Z (ip), vehicle: carboxymethylcellulose (CMC) 86 % of control | dose: 125.0 mg/kg/injection, schedule: Q01DX Z (ip), vehicle: water 95 % of control | dose: 250.0 mg/kg/injection, schedule: Q01DX Z (ip), vehicle: water 96 % of control | dose: 500.0 mg/kg/injection, schedule: Q01DX Z (ip), vehicle: water 112 % of control

O=[N+]([O-])c1ccc(N=Nc2c(Cl)cc(O)cc2Cl)cc1
inactive: [1] 96 % of control | [2] 89 % of control | dose: 100.0 mg/kg/injection, schedule: Q01DX009 (ip), vehicle: saline with Tween-80 89 % of control

Cn1ncc2c(N(N)CCO)nc(-c3ccc([N+](=O)[O-])o3)nc21
inactive: dose: 50.0 mg/kg/injection, schedule: Q01DX001 (ip), vehicle: saline 108 % of control | [3] 108 % of control | dose: 200.0 mg/kg/injection, schedule: Q01DX001 (ip), vehicle: saline 104 % of control | dose: 400.0 mg/kg/injection, schedule: Q01DX001 (ip), vehicle: saline 117 % of control

CC(=O)Nc1ccc(SC(=O)c2ccc(C(Cl)(Cl)Cl)cc2)cc1
inactive: [4] 101 % of control | [5] 98 % of control | dose: 400.0 mg/kg/injection, schedule: Q04DX003 (ip), vehicle: saline with Tween-80 93 % of control

CCN(CC)CCOC(=O)/C=C/c1ccc([N+](=O)[O-])o1
inactive: dose: 50.0 mg/kg/injection, schedule: Q01DX Z (ip), vehicle: saline 103 % of control | dose: 75.0 mg/kg/injection, schedule: Q01DX Z (ip), vehicle: saline 109 % of control | dose: 113.0 mg/kg/injection, schedule: Q01DX Z (ip), vehicle: saline 112 % of control

Cc1[nH]c(=O)[nH]c(=O)c1NCCO
inactive: dose: 100.0 mg/kg/injection, schedule: Q01DX009 (ip), vehicle: water 91 % of control | dose: 100.0 mg/kg/injection, schedule: Q04DX003 (ip), vehicle: water 101 % of control | dose: 200.0 mg/kg/injection, schedule: Q01DX009 (ip), vehicle: water 96 % of control | dose: 200.0 mg/kg/injection, schedule: Q04DX003 (ip), vehicle: water 103 % of control | dose: 400.0 mg/kg/injection, schedule: Q01DX009 (ip), vehicle: water 102 % of control | dose: 400.0 mg/kg/injection, schedule: Q04DX003 (ip), vehicle: water 103 % of control

c1ccc2cc3c(cc2c1)OCO3
inactive: dose: 100.0 mg/kg/injection, schedule: Q04DX002 (ip), vehicle: Klucel (hydroxypropylcellulose) (HPC) 110 % of control | dose: 200.0 mg/kg/injection, schedule: Q04DX002 (ip), vehicle: Klucel (hydroxypropylcellulose) (HPC) 107 % of control | dose: 400.0 mg/kg/injection, schedule: Q04DX002 (ip), vehicle: Klucel (hydroxypropylcellulose) (HPC) 98 % of control

CN1CCN(P(c2ccccc2)N2CCN(C)CC2)CC1
inactive: dose: 100.0 mg/kg/injection, schedule: Q04DX002 (ip), vehicle: saline with Tween-80 107 % of control | dose: 200.0 mg/kg/injection, schedule: Q04DX002 (ip), vehicle: saline with Tween-80 103 % of control | dose: 400.0 mg/kg/injection, schedule: Q04DX002 (ip), vehicle: saline with Tween-80 95 % of control

COc1ccc(C)cc1NC(=O)c1ccc(F)cc1
inactive: [6] 94 % of control | [7] 97 % of control | [8] 100 % of control

O/N=C1/CCN2CCCc3cccc1c32
inactive: [4] 94 % of control | [5] 97 % of control

CNCCCN1c2ccccc2C(C)(C)c2ccccc21
inactive: [3] 97 % of control

N/C(=N/N=C/c1cc(Cl)ccc1O)N/N=C\c1cc(Cl)ccc1O
inactive: dose: 15.0 mg/kg/injection, schedule: Q01DX Z (ip), vehicle: methylcellulose (MC) 107 % of control | dose: 30.0 mg/kg/injection, schedule: Q01DX Z (ip), vehicle: methylcellulose (MC) 104 % of control | dose: 60.0 mg/kg/injection, schedule: Q01DX Z (ip), vehicle: methylcellulose (MC) 119 % of control | dose: 60.0 mg/kg/injection, schedule: Q01DX Z (oral), vehicle: methylcellulose (MC) 94 % of control | dose: 120.0 mg/kg/injection, schedule: Q01DX Z (ip), vehicle: methylcellulose (MC) 108 % of control | dose: 120.0 mg/kg/injection, schedule: Q01DX Z (oral), vehicle: methylcellulose (MC) 93 % of control | dose: 240.0 mg/kg/injection, schedule: Q01DX Z (oral), vehicle: methylcellulose (MC) 100 % of control

Cc1ccc(NC(=O)Oc2ccc(-c3ccccc3)cc2Br)c(Br)c1
inactive: [6] 93 % of control | [7] 94 % of control | [8] 91 % of control

CCOC(=O)CCc1ccc(O)c(O)c1
inactive: dose: 100.0 mg/kg/injection, schedule: Q01DX009 (ip), vehicle: saline 100 % of control | [9] 92 % of control | dose: 200.0 mg/kg/injection, schedule: Q01DX009 (ip), vehicle: saline 102 % of control | [10] 111 % of control | [11] 101 % of control

Cc1cccc(C)c1NC(=O)Oc1c(C)cccc1C
inactive: [6] 106 % of control | dose: 100.0 mg/kg/injection, schedule: Q04DX003 (ip), vehicle: Klucel (hydroxypropylcellulose) (HPC) 102 % of control | [7] 101 % of control | dose: 200.0 mg/kg/injection, schedule: Q04DX003 (ip), vehicle: Klucel (hydroxypropylcellulose) (HPC) 102 % of control | [8] 97 % of control | dose: 400.0 mg/kg/injection, schedule: Q04DX003 (ip), vehicle: Klucel (hydroxypropylcellulose) (HPC) 100 % of control

O=C1CCC(=O)N1C(=O)c1ccccc1
inactive: dose: 100.0 mg/kg/injection, schedule: Q01DX Z (ip), vehicle: methylcellulose (MC) 104 % of control | dose: 150.0 mg/kg/injection, schedule: Q01DX Z (ip), vehicle: methylcellulose (MC) 102 % of control | dose: 225.0 mg/kg/injection, schedule: Q01DX Z (ip), vehicle: methylcellulose (MC) 95 % of control

CCCCCCCN(CCCCCCC)CC(O)c1cc2ccc(Cl)cc2nc1-c1ccc(Cl)cc1 (centres undefined)
inactive: [6] 87 % of control | [7] 97 % of control | [8] 87 % of control

COc1ccc2c(c1)c(=O)c(C(=O)O)cn2CCCOc1ccc([N+](=O)[O-])cc1
inactive: [6] 96 % of control | [9] 107 % of control | [7] 106 % of control | [10] 100 % of control | [8] 93 % of control | [11] 94 % of control

O=S1(=O)C2CCC(C2)C1Cl (centres undefined)
inactive: [1] 102 % of control | [2] 101 % of control

CCCCC/C(=N/NC(N)=O)C(OC)OC
inactive: dose: 100.0 mg/kg/injection, schedule: Q01DX001 (ip), vehicle: other 92 % of control | dose: 200.0 mg/kg/injection, schedule: Q01DX001 (ip), vehicle: other 92 % of control | dose: 400.0 mg/kg/injection, schedule: Q01DX001 (ip), vehicle: other 97 % of control

COc1ccc(Oc2cc(OC)ccc2Oc2ccccc2)cc1
inactive: dose: 100.0 mg/kg/injection, schedule: Q01DX001 (ip), vehicle: carboxymethylcellulose (CMC) 97 % of control | dose: 200.0 mg/kg/injection, schedule: Q01DX001 (ip), vehicle: carboxymethylcellulose (CMC) 105 % of control | dose: 400.0 mg/kg/injection, schedule: Q01DX001 (ip), vehicle: carboxymethylcellulose (CMC) 110 % of control
